The results in this text go back to patent US10159635B2, “Cosmetic and pharmaceutical uses of saccharides” (CURAPEL (SCOTLAND) LIMITED, priority 2012, dated 2018).

In assay [1] the test system is melanin in ex-vivo human skin. As to the kind of experiment: Masson Fontana melanin staining of ex-vivo human skin in organ culture. Format: cell-based. How it is done:
Samples of full thickness ex-vivo human skin were obtained from elective plastic surgery procedures. […] Two concentrations of the NDO melibiose, 1.5 and 3.0% (w/v) were tested for their ability to reduce skin pigmentation by addition to the medium surrounding the cultured skin samples at day 1 and every time the medium was changed thereafter. As a control some skin samples were cultured under identical conditions apart from the […] of melibiose.
At day 6, the skin samples were immersed in cryo-embedding medium and 5 μm sections cut and stained using the Masson Fontana assay. The principle of the Masson Fontana assay is that melanin granules reduce silver from ammoniacal silver nitrate solution to a visible metallic state. Information on the protocol for the Masson-Fontana Assay may be found in relevant laboratory handbooks, for example Lille RD, 1965, Histopathologic Technique and Practical Histochemistry, 3rd Ed 1965, the Blakiston Division, McGraw Hill Book Company, p 240, which is incorporated herein by reference.
Following the fixation of cryosections of skin with ethanol/acetic acid, slides were heated in 0.5% ammoniacal silver nitrate solution using a microwave. Sections were then toned in 1% gold chloride, fixed in 5% sodium thiosulphate and counterstained with haematoxylin before mounting using DPEX. Melanin stain can then be visualised using light microscopy.
Samples of full thickness ex-vivo human skin were obtained as described in Example 1 and were maintained in organ culture for 6 days. Two concentrations of the NDO melibiose, 25 mM and 50 mM, and two concentration of the NDO P95 (a 95% mixture of oligofructose, also known as fructooligosaccharides (FOS)), 25 mM and 50 mM, were tested for their ability to reduce skin pigmentation by addition to the medium surrounding the cultured skin samples at day 1 and every time the medium was changed thereafter. As a control some skin samples were cultured under identical conditions apart from the absence of NDO. […]

In assay [2] the test system is interleukin-8 (IL-8) production by HaCaT keratinocytes. As to the kind of experiment: IL-8 ELISA on culture supernatant of keratinocytes. It counts as cell-based. The protocol: Following an overnight coating of a flat-bottomed 96 well plate with an anti-IL-8 antibody, a 9-point IL-8 standard curve was generated using serial dilutions from a 2000 pg/ml IL-8 stock solution. These were cultured on the 96 well plate for 2 h along side culture supernatants derived from keratinocytes exposed to sugars. The plate was then washed and incubated for 2 h with an anti-IL-8 biotin-antibody before the plate was again washed and left for 20 min with a solution of streptavidin-HRP. After a final wash the plate was coated with a solution of tetramethyl benzidine forming a blue reaction product, the intensity of which relates to amount of IL-8 present in the original culture supernatant. This reaction was stopped using sulphuric acid turning the solution yellow which was then read on a microplate reader at […]. Unknown sample concentrations of IL-8 were determined using the standard curve.
In general terms: ELISA stands for enzyme-linked immunosorbent assay.

Take `OC[C@H]1O[C@H](OCC2O[C@@H](O)[C@H](O)[C@@H](O)[C@@H]2O)[C@H](O)[C@@H](O)[C@H]1O` (some centres unmarked) [melibiose]: the “reduction in melanin staining (mean density, image analysis) in treated skin vs control” value in assay [1] (Example 1, ex-vivo human skin, 6 days culture, 25 mM or 50 mM melibiose, FIG. 2b) is recorded as “approximately 10%”. In addition, the “melanin in stained skin sections, treated vs untreated control” value in assay [1] (Example 1, full thickness ex-vivo human skin, 6 days organ culture, melibiose 1.5 and 3.0% (w/v) in medium, FIG. 2a) is reported as “significant reduction in melanin”. Besides, the “mean density of melanin staining, treated skin vs control” value in assay [1] (Example 2, ex-vivo human skin, 6 days organ culture, 25 mM or 50 mM NDO in medium, FIG. 3) is on record as “reduction in melanin staining”. In assay [2] (HaCaT keratinocytes, unstimulated, FIG. 4a), the “constitutive (baseline) IL-8 secretion” value was “mildly dose-responsive suppression”. In addition, the “IL-8 secretion in response to IL-1β stimulation” value in assay [2] (keratinocytes stimulated with IL-1β, 5% melibiose, FIG. 4b) was “reduced to nearly control levels”.
